Data published in US20080311126A1, “Antisense Oligonucleotides Directed to Ribonucleotide Reducatase R2 and Uses Thereof in Combination Therapies for the Treatment of Cancer” (Genesense Technologies, Inc, priority 2004, published 2008).
Oligonucleotides are written 5' to 3', each unit as a sugar letter and its base; * is a phosphorothioate linkage, no mark a phosphodiester; rarer units and linkages stand in square brackets, end groups in braces. Plain capitals give the bases only. d = 2'-deoxy (DNA)

Columns and labels:
Test in all cases: Relative colony forming efficiency (Example 17, Table 13)
Assay type in all cases: cell-based, human
[1] = tested on: T24 bladder cell carcinoma; conditions: averages of 2-8 determinations
Experimental: (§1) Colony forming efficiency was determined using standard protocols. […] The test oligonucleotides were added to cell cultures in the presence of 2.5 μg of DOTMA/DOPE (Lipofectin; Life Technologies, Inc.) for four hours. The oligonucleotide was tested at 0.2 μM unless otherwise indicated. Controls were the cultures treated with lipofectin but without the oligonucleotide. […] Surviving cells were visualized by methylene blue staining, and colonies were scored. In some experiments cell aliquots were removed from the culture and viability was determined using the trypan blue exclusion test. Results were analyzed as percent of surviving cells compared to control cells. To test the antisense effects of many of these sequences as phosphorthioate deoxyribonucleotides, they were examined in relative colony forming experiments conducted as described in Example 16 with a series of human tumour cell lines. The results (shown as % inhibition of colony forming ability) obtained with cancer cells derived from the bladder, breast, lung, colon, pancreas, prostate, liver and cervix, are shown in Table 13. The specific cell lines employed are as follows: […]

[2] = tested on: MDA PaCa-2 pancreatic cell carcinoma; conditions: MIA PaCa-2 pancreatic cell carcinoma; averages of 2-8 determinations
Experimental: as §1

[3] = tested on: HepG2 hepatocellular carcinoma; conditions: averages of 2-8 determinations
Experimental: as §1

[4] = tested on: HCT116 colon cell carcinoma; conditions: averages of 2-8 determinations
Experimental: as §1

[5] = tested on: PC-3 prostrate cell adenocarcinoma; conditions: averages of 2-8 determinations
Experimental: as §1

A549 lung cell carcinoma = conditions: averages of 2-8 determinations
Experimental: as §1

Sequence	Reduced relative colony forming efficiency, T24 (% inhibition of colony forming ability) [1] [%]	Reduced relative colony forming efficiency, MIA PaCa-2 (% inhibition of colony forming ability) [2] [%]	Reduced relative colony forming efficiency, HepG2 (% inhibition of colony forming ability) [3] [%]	Reduced relative colony forming efficiency, HCT116 (% inhibition of colony forming ability) [4] [%]	Reduced relative colony forming efficiency, PC-3 (% inhibition of colony forming ability) [5] [%]	Reduced relative colony forming efficiency, A549 (% inhibition of colony forming ability) (A549 lung cell carcinoma) [%]
TCAGCATCCAAGGTAAAAGA (antisense dT*dC*dA*dG*dC*dA*dT*dC*dC*dA*dA*dG*dG*dT*dA*dA*dA*dA*dG*dA) [AS-II-1338-20]	63.16	79.17	80.41	74.73	93.75	63.93
GCATCCAAGGTAAAAGAATT (antisense dG*dC*dA*dT*dC*dC*dA*dA*dG*dG*dT*dA*dA*dA*dA*dG*dA*dA*dT*dT) [AS-II-1335-20]	59.95	78.78	72.98	67.87	90.04	78.59
AAGCGGCGGGGGTTTTCTCT (antisense dA*dA*dG*dC*dG*dG*dC*dG*dG*dG*dG*dG*dT*dT*dT*dT*dC*dT*dC*dT) [AS-II-414-20]	11.67	36.11	30.89	19.1	60.94	12.44
ATCCAGCGCAAGGCCCAGTC (antisense dA*dT*dC*dC*dA*dG*dC*dG*dC*dA*dA*dG*dG*dC*dC*dC*dA*dG*dT*dC) [AS-II-816-20]	73.91	93.21	93.08	88.22	94.08	78.4
GACGGCTGGGACAGGGTGCA (antisense dG*dA*dC*dG*dG*dC*dT*dG*dG*dG*dA*dC*dA*dG*dG*dG*dT*dG*dC*dA) [AS-II-134-20]					77.51	
CAAATGGGTTCTCTACTCTG (antisense dC*dA*dA*dA*dT*dG*dG*dG*dT*dT*dC*dT*dC*dT*dA*dC*dT*dC*dT*dG) [AS-II-1217-20]	66.36	34.85		68.68	81.03	91.49
TTGTGTACCAGGTGTTTGAA (antisense dT*dT*dG*dT*dG*dT*dA*dC*dC*dA*dG*dG*dT*dG*dT*dT*dT*dG*dA*dA) [AS-II-1023-20]	58.26	42.82			87.63	34.52
GCGGCGGGGGTTTTCTCTCA (antisense dG*dC*dG*dG*dC*dG*dG*dG*dG*dG*dT*dT*dT*dT*dC*dT*dC*dT*dC*dA) [AS-II-412-20]	22.2	55.25	26.23	27.98	73.96	43.78
TTCTGGCAAAAGGTGATACT (antisense dT*dT*dC*dT*dG*dG*dC*dA*dA*dA*dA*dG*dG*dT*dG*dA*dT*dA*dC*dT) [AS-II-1538-20]	67.29	50.62	96.84	51.28	84.71	90.34
TGGGACAGGGTGCACGGGCG (antisense dT*dG*dG*dG*dA*dC*dA*dG*dG*dG*dT*dG*dC*dA*dC*dG*dG*dG*dC*dG) [AS-II-130-20]		82.11	94.28		74.66	86.48
ACTGCCATTGTCACTGCTAT (antisense dA*dC*dT*dG*dC*dC*dA*dT*dT*dG*dT*dC*dA*dC*dT*dG*dC*dT*dA*dT) [AS-II-1581-20]	68.22	24.07	93.07	66.85	85.83	90.55
AGCCTCTGCCTTCTTATACA (antisense dA*dG*dC*dC*dT*dC*dT*dG*dC*dC*dT*dT*dC*dT*dT*dA*dT*dA*dC*dA) [AS-II-472-20]	69.26	97.13		67.23	90.7	96.99
AGCTGCTGCGGGTCCGTGAT (antisense dA*dG*dC*dT*dG*dC*dT*dG*dC*dG*dG*dG*dT*dC*dC*dG*dT*dG*dA*dT) [AS-II-225-20]	73.23	95.44		59.5	30.06	
CCGTGGGCTCCTGGAAGATC (antisense dC*dC*dG*dT*dG*dG*dG*dC*dT*dC*dC*dT*dG*dG*dA*dA*dG*dA*dT*dC) [AS-II-344-20]					80.06	
TCCTCGCGGTCTTGCTGGCC (antisense dT*dC*dC*dT*dC*dG*dC*dG*dG*dT*dC*dT*dT*dG*dC*dT*dG*dG*dC*dC) [AS-II-323-20]		97.55	96.39	55.8	79.76	91.24
GAAGCCATAGAAACAGCGGG (antisense dG*dA*dA*dG*dC*dC*dA*dT*dA*dG*dA*dA*dA*dC*dA*dG*dC*dG*dG*dG) [AS-II-667-20]	70.48	85.26	88.23		91.8	70.3
CCAGCACTATAAACAGACAG (antisense dC*dC*dA*dG*dC*dA*dC*dT*dA*dT*dA*dA*dA*dC*dA*dG*dA*dC*dA*dG) [AS-II-1517-20]					91.75	
CGGCTCATCCTCCACGC (antisense dC*dG*dG*dC*dT*dC*dA*dT*dC*dC*dT*dC*dC*dA*dC*dG*dC) [AS-II-391-17]		26.35	60.64		93.25	
